# From ChEMBL document CHEMBL1124209, “Phosphonoformate and phosphonoacetate derivatives of 5-substituted 2'-deoxyuridines: synthesis and antiviral activity” (1988)
# Columns and labels:
# Format in all cases: functional
# [1] = tested on: Human alphaherpesvirus 1; assay: Minimum inhibitory concentration causing 25% inhibition of cytopathic effect induced by Herpes simplex virus-1 (Brand) in vero cells
# [2] = species: Oryctolagus cuniculus; assay: Minimum cytotoxic concentration causing toxic effects on uninfected cells in rabbit
# [3] = tested on: Human alphaherpesvirus 1; assay: Minimum inhibitory concentration causing 25% inhibition of cytopathic effect induced by Herpes simplex virus-1 (K979) in HEp-2 cells
# [4] = tested on: Human alphaherpesvirus 1; assay: Minimum inhibitory concentration causing 25% inhibition of cytopathic effect induced by Herpes simplex virus(HSV) -1 (thymidine kinase deficient) in vero cells
# [5] = tested on: Human alphaherpesvirus 2; assay: Minimum inhibitory concentration causing 25% inhibition of cytopathic effect induced by Herpes simplex virus(HSV) -2 (thymidine kinase deficient) in vero cells
# [6] = tested on: Human alphaherpesvirus 2; assay: Minimum inhibitory concentration causing 25% inhibition of cytopathic effect induced by Herpes simplex virus(HSV) -2 (thymidine kinase deficient) in HEp-2 cells
# [7] = tested on: Human alphaherpesvirus 1; assay: Minimum inhibitory concentration causing 25% inhibition cytopathic effect induced by Herpes simplex virus-1 (Brand) in HEp-2 cells
# [8] = tested on: Human alphaherpesvirus 1; assay: Minimum inhibitory concentration causing 25% inhibition of cytopathic effect induced by herpes simplex virus (HSV)-1 (K979) in vero cells.
# [9] = tested on: Human alphaherpesvirus 1; assay: Minimum inhibitory concentration causing 25% inhibition of cytopathic effect induced by Herpes simplex virus(HSV) -1 (thymidine kinase deficient) in HEp-2 cells
# [10] = tested on: Human alphaherpesvirus 1; assay: Mean survival time in HSV-1 infected mice, after peroral administration of 5 mg/kg of compound; details: route oral
# [11] = tested on: Human alphaherpesvirus 1; assay: Mean survival time in HSV-1 infected mice, after peroral administration of 1 mg/kg of compound; details: route oral
# [12] = tested on: Human alphaherpesvirus 1; assay: Cumulative mortality in percent of HSV-1 infected mice, after intraperitoneal administration of 0.5 mg/kg of compound
# [13] = tested on: Human alphaherpesvirus 1; assay: Mean survival time in HSV-1 infected mice, after intraperitoneal administration of 5 mg/kg of compound
# [14] = tested on: Human alphaherpesvirus 1; assay: Cumulative mortality in percent of HSV-1 infected mice, after peroral administration of 1 mg/kg of compound; details: route oral
# [15] = tested on: Human alphaherpesvirus 1; assay: Cumulative mortality in percent of HSV-1 infected mice, after peroral administration of 5 mg/kg of compound; details: route oral
# [16] = tested on: Human alphaherpesvirus 1; assay: Cumulative mortality in percent of HSV-1 infected mice, after intraperitoneal administration of 1 mg/kg of compound
# [17] = tested on: Human alphaherpesvirus 1; assay: Mean survival time in HSV-1 infected mice, after peroral administration of 10 mg/kg of compound; details: route oral
# [18] = tested on: Human alphaherpesvirus 1; assay: Cumulative mortality in percent of HSV-1 infected mice, after peroral administration of 10 mg/kg of compound; details: route oral
# [19] = tested on: Human alphaherpesvirus 1; assay: Mean survival time in HSV-1 infected mice, after intraperitoneal administration of 0.5 mg/kg of compound
# [20] = tested on: Human alphaherpesvirus 1; assay: Cumulative mortality in percent of HSV-1 infected mice, after intraperitoneal administration of 5 mg/kg of compound
# [21] = tested on: Human alphaherpesvirus 1; assay: Mean survival time in HSV-1 infected mice, after intraperitoneal administration of 1 mg/kg of compound
Structure (SMILES),MIC [1] [µM],MTC [2],MIC [3] [µM],MIC [7] [µM],MIC [8] [µM],MST [10] [days],MST [11] [days],CMP [12],MST [13] [days],CMP [14],CMP [15],CMP [16],MST [17] [days],CMP [18],MST [19] [days],CMP [20],MST [21] [days],further results
COP(=O)(CC(=O)O[C@H]1C[C@H](n2cc(CCCl)c(=O)[nH]c2=O)O[C@@H]1CO)OC,0.7,227 µM,6.8,68.1,22.7,,,,,,,,,,,,,MIC [4]: 227 µM; MIC [5]: 227 µM; MIC [6]: > 227 µM; MIC [9]: > 227 µM
CCOC(=O)P(=O)(OC)OC[C@H]1O[C@@H](n2cc(C)c(=O)[nH]c2=O)C[C@@H]1O (some centres undefined),> 255,>=842 uM,> 255,> 255,> 255,,,,,,,,,,,,,
CCOC(=O)P(=O)(OC)OC[C@H]1O[C@@H](n2ccc(=O)[nH]c2=O)C[C@@H]1O (some centres undefined),> 264,>=872 uM,> 264,> 264,> 264,,,,,,,,,,,,,
COP(=O)(CC(=O)OC[C@H]1O[C@@H](n2cc(C)c(=O)[nH]c2=O)C[C@@H]1O)OC,> 255,>=842 uM,> 255,> 255,> 255,,,,,,,,,,,,,
CCOC(=O)CP(=O)(OC)OC[C@H]1O[C@@H](n2ccc(=O)[nH]c2=O)C[C@@H]1O (some centres undefined),> 255,>=842 uM,> 255,> 255,> 255,,,,,,,,,,,,,
CC(C)(C)OC(=O)CP(=O)(O)OC[C@H]1O[C@@H](n2cc(CCCl)c(=O)[nH]c2=O)C[C@@H]1O,> 213,>=704 uM,> 213,> 213,> 213,11.3,11.5,67,15.4,83,83,67,13.3,58,12.9,50,12.8,
COC(=O)P(=O)(O)O[C@H]1C[C@H](n2cc(CCCl)c(=O)[nH]c2=O)O[C@@H]1CO,> 242,>=800 uM,> 242,> 242,> 242,,,,,,,,,,,,,
CCOC(=O)P(=O)(Nc1ccccc1)OC[C@H]1O[C@@H](n2cc(CCCl)c(=O)[nH]c2=O)C[C@@H]1O (some centres undefined),2,658 µM,59.8,2,> 199,15.4,11.4,75,18,100,50,67,17.8,25,13.1,25,13.9,MIC [4]: 59.8 µM; MIC [5]: 199 µM; MIC [6]: > 199 µM; MIC [9]: > 199 µM
CCOC(=O)CP(=O)(O)OC[C@H]1O[C@@H](n2cc(CCCl)c(=O)[nH]c2=O)C[C@@H]1O,> 227,749 µM,> 227,> 227,> 227,13.6,11.9,75,15.5,83,58,83,15.9,42,12.2,42,11.3,
CCOC(=O)CP(=O)(OC)OC[C@H]1O[C@@H](n2cc(C)c(=O)[nH]c2=O)C[C@@H]1O (some centres undefined),> 246,>=812 uM,> 246,> 246,> 246,,,,,,,,,,,,,
